Values of other authors as cited in patent US20250340675A1 (priority 2022, published 2025).

Tests used:
albino mice = conditions: mouse, in vivo
mice [1] = conditions: oral administration in mice
mice [2] = conditions: neurotoxic adverse effects; oral administration in mice
[3] = in vivo

O=C(O)c1cc(O)c(O)c(O)c1 [gallic acid, 3,4,5-trihydroxy benzoic acid]
LD50 (acute toxicity) (albino mice): greater than 2000 mg/kg

OCCCCO [1,4-Butanediol]
median lethal dose (LD50) (mice [1]): 1,525 mg/kg | no observed adverse effect level (NOAEL) (mice [2]): 100 mg/kg per day

Hyaluronic acid [HA]
half-life ([3]; human): 24÷48 hours | average turnover rate [3]: 5 g/day
